Assay [1] deals with T1, yeast AK (AK from Saccharomyces cerevisiae) (Saccharomyces cerevisiae, UniProt P07170).
T1 construct: purchased Sigma
Nature of the assay: Distinguishing reporter adenylate kinases from yeast adenylate kinase (FIG. 7B). In kind it is biochemical.

The target in assay [2] is luciferase (Photinus pyralis, UniProt P08659). Nature of the assay: Effect of inhibitor on luciferase. In kind it is biochemical.
In assay [3] the target is adenylate kinase from S. acidocaldarius (Sulfolobus acidocaldarius, UniProt P35028). Nature of the assay: Inhibition of reporter adenylate kinase by Ap5a, ATP detected with luciferin/luciferase.
Method: (§1) The reporter adenylate kinases from S. acidocaldarius or T. maritima were purified as described previously. Rabbit myokinase (muscle adenylate kinase) was obtained from Sigma. 100 ng of each enzyme was incubated with the inhibitor at the concentrations shown in reaction buffer (15 mM MgAc, 10 mM tris, 1 mM EDTA pH 7.75) for 5 minutes. ADP was added to a final concentration of 70 μM and the reaction incubated before addition of luciferin and luciferase.
Assay [4] addresses T2, Rabbit myokinase (muscle adenylate kinase) (Oryctolagus cuniculus, UniProt P00569).
T2 sequence (P00569 1-194): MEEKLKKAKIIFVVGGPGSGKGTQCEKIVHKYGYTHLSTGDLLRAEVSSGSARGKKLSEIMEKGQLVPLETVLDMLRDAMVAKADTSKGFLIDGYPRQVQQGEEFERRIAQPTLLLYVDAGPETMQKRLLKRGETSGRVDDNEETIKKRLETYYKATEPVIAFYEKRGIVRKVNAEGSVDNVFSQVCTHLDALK
Nature of the assay: Inhibition of non-reporter (endogenous) tissue kinase by Ap5a, ATP detected with luciferin/luciferase.
Method: as §1

Assay [5] has as its target T3, adenylate kinase from T. maritima (Thermotoga maritima, UniProt Q9X1I8).
T3 sequence (Q9X1I8 1-220): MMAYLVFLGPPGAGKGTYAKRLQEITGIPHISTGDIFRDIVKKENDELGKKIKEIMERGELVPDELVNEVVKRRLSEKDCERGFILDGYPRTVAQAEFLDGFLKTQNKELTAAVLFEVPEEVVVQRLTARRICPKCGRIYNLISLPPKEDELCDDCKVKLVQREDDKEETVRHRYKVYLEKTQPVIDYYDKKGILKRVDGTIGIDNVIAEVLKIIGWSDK
Nature of the assay: Inhibition of reporter adenylate kinase by Ap5a, ATP detected with luciferin/luciferase.
Method: as §1

The record followed here is patent US8512970B2, “Rapid bioluminescence detection assay” (The Secretary of State for Health, priority 2009, dated 2013).

“Also recorded” adds a separate entry of the source. Structures can show the parent of a compound that is named as a salt.

T1 sequence (P07170 whole entry): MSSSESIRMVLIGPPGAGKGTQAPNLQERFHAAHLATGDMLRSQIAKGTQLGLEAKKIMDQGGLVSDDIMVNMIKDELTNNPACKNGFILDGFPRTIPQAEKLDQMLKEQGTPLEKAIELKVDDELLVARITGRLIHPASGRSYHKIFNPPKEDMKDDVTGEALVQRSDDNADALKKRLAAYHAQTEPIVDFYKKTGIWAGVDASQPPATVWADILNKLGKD
Sequence of adenylate kinase from S. acidocaldarius (P35028 whole entry): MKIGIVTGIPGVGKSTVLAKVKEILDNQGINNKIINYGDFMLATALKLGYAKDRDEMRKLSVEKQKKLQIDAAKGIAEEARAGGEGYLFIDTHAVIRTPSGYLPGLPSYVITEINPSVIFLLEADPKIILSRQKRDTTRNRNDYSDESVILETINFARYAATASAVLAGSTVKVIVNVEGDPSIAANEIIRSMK
Sequence of luciferase (P08659 whole entry, species assumed): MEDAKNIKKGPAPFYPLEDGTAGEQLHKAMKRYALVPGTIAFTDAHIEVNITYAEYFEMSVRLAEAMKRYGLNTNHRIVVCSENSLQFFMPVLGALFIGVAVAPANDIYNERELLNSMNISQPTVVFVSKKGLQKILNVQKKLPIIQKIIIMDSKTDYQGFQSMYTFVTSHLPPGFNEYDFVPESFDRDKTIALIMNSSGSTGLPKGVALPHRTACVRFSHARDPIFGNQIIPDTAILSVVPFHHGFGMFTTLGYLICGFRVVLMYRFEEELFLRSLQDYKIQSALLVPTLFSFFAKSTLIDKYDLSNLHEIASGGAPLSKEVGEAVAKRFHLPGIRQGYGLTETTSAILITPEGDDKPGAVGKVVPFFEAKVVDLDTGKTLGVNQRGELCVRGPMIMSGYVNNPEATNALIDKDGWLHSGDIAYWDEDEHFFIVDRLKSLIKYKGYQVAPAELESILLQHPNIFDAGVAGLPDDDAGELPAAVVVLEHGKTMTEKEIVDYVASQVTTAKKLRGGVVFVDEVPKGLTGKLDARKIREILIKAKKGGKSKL

Consider `Nc1ncnc2c1ncn2[C@@H]1O[C@H](COP(=O)(O)OP(=O)(O)OP(=O)(O)OP(=O)(O)OC[C@H]2O[C@@H](n3cnc4c(N)ncnc43)[C@H](O)[C@@H]2O)[C@@H](O)[C@H]1O` [Ap4A, Diadenosine tetraphosphate], for which, in assay [1], the “distinguishing bacterial and archaeal reporter adenylate kinases from enzyme of fungal origin (yeast AK)” value was “do not allow for an assay to distinguish”.

As a reminder, the IC50 is the concentration needed to halve the response being measured. Lower therefore signals inhibition by little substance. Take `Nc1ncnc2c1ncn2[C@@H]1O[C@H](COP(=O)(O)OP(=O)(O)OP(=O)(O)OP(=O)(O)OP(=O)(O)OC[C@H]2O[C@@H](n3cnc4c(N)ncnc43)[C@H](O)[C@@H]2O)[C@@H](O)[C@H]1O` [Ap5A, Diadenosine pentaphosphate pentasodium salt]: the “effect on the activity of the luciferase” value in assay [2] is reported as “does not have a detrimental effect”. The figures for the IC50 in assay [3], in assay [4] and in assay [5] were 10.4 µM, 0.06 µM and 4.3 µM, respectively. In assay [1], the “distinguishing bacterial and archaeal reporter adenylate kinases from enzyme of fungal origin (yeast AK)” value was “can still be used to distinguish; also recorded: discriminates reporter kinase from non-reporter kinase”.

For the compound Diadenosine hexaphosphate [Ap6A], the “distinguishing bacterial and archaeal reporter adenylate kinases from enzyme of fungal origin (yeast AK)” value in assay [1] is reported as “do not allow for an assay to distinguish”.
